{"source": "ChEMBL document CHEMBL4354779", "about": "“Selective modulation of the cannabinoid type 1 (CB1) receptor as an emerging platform for the treatment of neuropathic pain” (Medchemcomm, 2019)", "key": {"Cannabinoid receptor 1 [1]": {"target": "T1, Cannabinoid receptor 1 (Homo sapiens, UniProt P21554)", "T1 sequence (P21554 whole entry)": "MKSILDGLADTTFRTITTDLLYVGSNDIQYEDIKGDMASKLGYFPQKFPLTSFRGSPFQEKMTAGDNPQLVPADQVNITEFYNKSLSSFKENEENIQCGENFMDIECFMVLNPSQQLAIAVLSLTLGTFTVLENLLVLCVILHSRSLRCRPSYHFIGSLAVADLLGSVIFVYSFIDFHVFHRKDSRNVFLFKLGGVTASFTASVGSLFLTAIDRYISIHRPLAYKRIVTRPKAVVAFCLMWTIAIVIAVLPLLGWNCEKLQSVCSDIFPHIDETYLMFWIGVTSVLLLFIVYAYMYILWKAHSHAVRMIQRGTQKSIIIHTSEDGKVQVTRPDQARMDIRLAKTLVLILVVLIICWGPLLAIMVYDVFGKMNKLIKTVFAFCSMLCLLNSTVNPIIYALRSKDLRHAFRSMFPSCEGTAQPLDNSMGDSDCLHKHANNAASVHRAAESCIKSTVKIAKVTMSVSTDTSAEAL", "test": "Inhibition of 3H-CP55,940 tracer binding to human CB1 receptor expressed in HEK293 cell membranes after 1 hr by scintillation counting method"}, "[2]": {"test": "Ratio of drug uptake in C57BL/6 mouse brain to plasma at 0.5 to 27 umol/kg, sc measured after 60 mins by protein precipitation based LC-ESI-MS analysis", "format": "ADME, organism-based", "conditions": "1 h"}, "Cannabinoid receptor 1 [3]": {"target": "T1, Cannabinoid receptor 1", "test": "Agonist activity at human CB1 receptor expressed in HEK293 cell membranes after 1 hr by scintillation counting method"}, "Cannabinoid receptor 2 [4]": {"target": "T2, Cannabinoid receptor 2 (Homo sapiens, UniProt P34972)", "T2 sequence (P34972 whole entry)": "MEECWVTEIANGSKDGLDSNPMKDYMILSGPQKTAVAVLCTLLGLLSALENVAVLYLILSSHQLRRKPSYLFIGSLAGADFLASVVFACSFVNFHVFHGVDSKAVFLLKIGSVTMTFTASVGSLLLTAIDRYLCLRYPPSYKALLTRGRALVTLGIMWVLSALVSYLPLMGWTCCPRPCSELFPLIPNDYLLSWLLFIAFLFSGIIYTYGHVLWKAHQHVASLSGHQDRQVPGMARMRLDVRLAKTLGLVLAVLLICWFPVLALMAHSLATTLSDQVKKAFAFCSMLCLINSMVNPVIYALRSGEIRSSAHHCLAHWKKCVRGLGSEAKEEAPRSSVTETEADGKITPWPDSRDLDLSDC", "test": "Inhibition of 3H-CP55,940 tracer binding to human CB2 receptor expressed in Sf9 insect cell membranes after 1 hr by scintillation counting method"}, "Rattus norvegicus [5]": {"test_system": "Rattus norvegicus", "test": "Antiallodynic activity in Sprague-Dawley rat model of L5/L6 spinal nerve ligation-induced neuropathic pain at 2.5 umol/kg by up-and-down method relative to control", "format": "functional"}, "[6]": {"test": "Ratio of drug uptake in Sprague-Dawley rat brain to plasma at 3 umol/kg, sc measured after 60 mins by protein precipitation based LC-ESI-MS analysis", "format": "ADME, organism-based", "conditions": "1 h"}, "Cannabinoid receptor 1 [7]": {"target": "T1, Cannabinoid receptor 1", "test": "Agonist activity at human CB1 receptor"}, "Cannabinoid receptor 2 [8]": {"target": "T2, Cannabinoid receptor 2", "test": "Agonist activity at human CB2 receptor"}, "[9]": {"test": "Brain to plasma permeability coefficient, Kp of compound in rat", "format": "ADME"}, "Rattus norvegicus [10]": {"test_system": "Rattus norvegicus", "test": "Antiallodynic activity in Sprague-Dawley rat model of L5/L6 spinal nerve ligation-induced neuropathic pain at 8 umol/kg by up-and-down method relative to control", "format": "functional"}, "[11]": {"test": "Ratio of drug uptake in Sprague-Dawley rat brain to plasma at 1 to 8 umol/kg, sc measured after 60 mins by protein precipitation based LC-ESI-MS analysis", "format": "ADME, organism-based"}, "[12]": {"test": "Ratio of drug uptake in C57BL/6 mouse brain to plasma at 1 to 16 umol/kg, sc measured after 60 mins by protein precipitation based LC-ESI-MS analysis", "format": "ADME, organism-based"}}, "data": [{"compound": "CCOc1ccc(Cc2nc3cc(N(C)S(=O)(=O)c4cccs4)ccc3n2CC2CCCCC2)nc1", "values": [{"measurement": "IC50", "setting": "Cannabinoid receptor 1 [1]", "result": 3.98, "unit": "nM"}, {"measurement": "Ratio", "setting": "[2]", "result": 5, "unit": "%"}, {"measurement": "EC50", "setting": "Cannabinoid receptor 1 [3]", "result": 10, "unit": "nM"}, {"measurement": "IC50", "setting": "Cannabinoid receptor 2 [4]", "result": 1, "unit": "nM"}, {"measurement": "Activity", "setting": "Rattus norvegicus [5]", "result": 100, "unit": "%"}, {"measurement": "Ratio", "setting": "[6]", "result": 7, "unit": "%"}]}, {"compound": "CC(C)(C)c1nc2cc(NS(C)(=O)=O)ccc2n1CC1CCC(F)(F)CC1", "values": [{"measurement": "Ki", "setting": "Cannabinoid receptor 1 [7]", "result": 11.7, "unit": "nM"}, {"measurement": "Ki", "setting": "Cannabinoid receptor 2 [8]", "result": 0.871, "unit": "nM"}, {"measurement": "Kp", "setting": "[9]", "result": 0.04}]}, {"compound": "Cc1c(C(=O)c2cccc3ccccc23)c2cccc3c2n1C[C@H](CN1CCOCC1)O3", "values": [{"measurement": "Activity", "setting": "Rattus norvegicus [10]", "result": 100, "unit": "%"}, {"measurement": "Kp at 1 h", "setting": "[11]", "result": 2.2}, {"measurement": "Kp at 1 h", "setting": "[12]", "result": 4.2}]}]}
